# Reference: patent US9593154B2, “Engineered polypeptides having enhanced duration of action” (AMYLIN PHARMACEUTICALS, LLC, priority 2010, dated 2017)
# Key:
# [1] = test system: human kidney brush border membrane protein extracts; assay: Human kidney brush border membrane (KBBM) stability assay; assay type: in vitro ADME; details: hKBBM, 30 microM peptide, 37 degrees C, 5 hours; relative to positive control
# Description: Relative stability of representative peptides in a human kidney brush border membrane (KBBM) assay was performed as follows. Human kidney brush border membrane protein extracts are rich in various peptidases. […] In a separate vial, peptide stock solution (300 microM in 50% acetonitrile in water) was prepared and 70 microL of this solution was added to the above hKBBMP solution. The solution was gently mixed by manual shaking so that the final peptide concentration is 30 microM. Then 100 microL of this solution was aliquoted into six different tubes and into one tube 200 microL of enzyme stop solution (50% acetonitrile in water with 0.1% TFA) was added. This tube was used for the measurement of the initial peptide concentration at time t=0 minute while all other 5 tubes were incubated at 37 degrees C. using a water bath. At intervals of 1, 2, 3, 4 and 5 hour, each tube was taken out and quenched with 200 microL of stop solution. Finally, all six tubes were centrifuged at 1800×g for 10 min to remove any precipitated proteins. The supernatant (10 microL) was transferred into an HPLC auto sampler, and by using selected ion count method AUC was measured. Each sample was run in triplicates and average AUC was calculated for data analysis. Sample analysis was done on Agilent HPLC with mass detector with an acetonitrile with 0.1% TFA gradient. […]
# [2] = Stability in human plasma; assay type: in vitro ADME; details: 10 μg/ml in human plasma, 37 degrees C, 5 hours; normalized to a standard (100%)
# NIH/Swiss female mice = assay: OGTT DOA (oral glucose tolerance test for duration of action); assay type: in vivo, mouse; details: for % Glucose Lowering Compared to Vehicle: 25 nmol/kg IP at t=-1 day, glucose gavage 1.5 g/kg at t=0, blood glucose at 30 min, 24 hours post dose
# Description: In vivo assays for activity and duration of action and pharmacokinetics can be done using known methods. For example, duration can be performed using an oral glucose tolerance test (OGTT) in which the drug is administered to the subject at a desired time point before the glucose is administered orally (to measure drug duration of action; OGTT DOA) and glucose blood levels are measured (e.g. readily done in mice). Activity and duration can also be measured using an intravenous glucose tolerance test (IVGTT) in which the drug is administered to the subject at a desired time point before the glucose is administered IV (IVGTT DOA) and blood glucose levels are measured (e.g. can readily be done in rats). Preferred engineered compounds have a desired effect on blood glucose of at least 24 hours duration after a single dose of drug, preferably at least 3 days, at least 4 days, at least 5 days, at least 6 days, and at least 1 week after the single dose of drug is given.
# The effects on blood glucose prior to glucose gavage ([…]) and at 30 minutes post-glucose gavage were investigated 1 day post dose of peptide compound with varying amounts of Cmpd 15, with results shown in FIGS. 1A-1B. Bars represent mean±sd. Peptide was injected IP at t=−1 day. Glucose gavage (1.5 g/kg) given at t=0 to 4-hour fasted NIH/Swiss female mice. Blood glucose was measured with a OneTouch® Ultra® (LifeScan, Inc., a Johnson & Johnson Company, Milpitas, Calif.) * p<0.05 vs. vehicle control; ANOVA, Dunnett's test. This OGTT DOA indicates drug activity is present at least 24 hours after drug was administered. Exendin-4 (unconjugated) was ineffective in this assay when dosed at t-24 hours (1 day prior to the glucose assay), and even at higher doses.
# The effects on blood glucose prior to gavage ([…]) and at 30 min were investigated 2 day post dose with varying amounts of Cmpd 15, with results shown in FIGS. 2A-2B. This OGTT DOA indicates drug activity is present at least 48 hours after drug was administered.
# A comparison of the effects of Cmpds 15 and 8 on blood glucose was conducted, with results depicts in FIGS. 3A-3B. This OGTT DOA indicates drug activity is present at least 24 hours after drug was administered.
# The effects of Cmpds 15, 8 and 10 on the change in blood glucose at 30 min (% pre-gavage) was investigated, as depicted in FIG. 7. In the figure, bars represent mean±s.d. Test compound was injected IP at t=−1 day. Glucose gavage (1.5 g/kg) given at t=0 to 4 hr fasted NIH/Swiss female mice. Blood glucose was measured as described herein. This OGTT DOA indicates drug activity is present at least 24 hours after drug was administered.
# The effects of compounds disclosed herein on the change in blood glucose at 30 min (% pre-gavage) were investigated as described above. Test compound was injected IP at t=−1 day at 25 nmol/kg. Glucose gavage (1.5 g/kg) given at t=0 to 4 hr fasted NIH/Swiss female mice. Blood glucose was measured as described herein. This OGTT DOA indicates drug activity is present at least 24 hours after drug was administered. […] Exendin-4 (unconjugated) was ineffective in this assay when dosed at t-24 hours, and even at higher doses. […] Cmpd 22 with an albumin binding sequence the PAB protein from P. magnus had little if any […] (3%) in the above assay.
# db/db mice = assay: Oral delivery (gavage) in diabetic db/db mice, blood glucose; details: PBS/propylene glycol (50:50)
# [3] = Pharmacokinetic profile after subcutaneous dosing in normal HSD rats; assay type: in vivo, rat; details: 25 nmol/kg single dose
# Description: Blood was collected via tail bleed at t=1 hour, 3 hours, 6 hours, 24 hours, 48 hours, 72 hours, 96 hours and 168 hours from fed HSD male rats. Food and body weights were measured daily. […] Points represent mean±sd.
# ob/ob mice = assay: Effect on body weight, glucose and HbA1c in ob/ob mice after single sc dose; assay type: in vivo, mouse; details: non-fasted male ob/ob mice; Cmpd 15 at 250 nmol/kg sc on day 0
# Description: The time course of the effect of Cmpd 15 on body weight, glucose and HbA1c in ob/ob mice was investigated post dose. […] Changes in glucose (% pre-treatment) and in HbA1c (% pre-treatment) are depicted in FIGS. 5B-5C. Points represent mean±s.d. (standard deviation). Cmpd 15 was injected sc on day=0 immediately following baseline sample collection in non-fasted male ob/ob mice. Unless indicated otherwise, blood glucose measures described herein employed a OneTouch® Ultra® device (LifeScan, Inc. Miliptas, Calif.).
# diabetic ob/ob mice = assay: Chronic exposure in diabetic ob/ob mice (twice weekly, 28 days); assay type: in vivo, mouse
# Description: The time course of the effect of the test compound on body weight, glucose lowering and HbA1c lowering in ob/ob mice was investigated post dose, with values at 4 weeks presented in FIGS. 11A, 11B, 11C and 11D. […] Points represent mean±s.d. (standard deviation). Each test compound was injected IP on day=0 immediately following baseline sample collection in non-fasted male ob/ob mice. The effects observed for the 25 nmol/kg biw (twice weekly) dose was greater than that observed for exendin-4 given at ˜7.2 nmol/kg/d by continuous infusion (CSI), a dose known to provide a maximal efficacy for exendin-4. […] Unless indicated otherwise, blood glucose measures described herein employed a OneTouch® Ultra® device (LifeScan, Inc. Miliptas, Calif.).
# [4] = test system: renal cortical tubular epithelial cells; assay: Kidney vacuolization histopathology; assay type: in vivo, mouse; details: C57BL6 female mice, sc injection days 0-6, sacrifice day 7
# Description: With some drugs, such as some pegylated proteins, undesirable vacuoles can form in cytoplasm of epithelial cells lining the proximal convoluted tubules, which is an undesirable toxicity measure. […] C57BL6 female mice (n=2 cages, 3 mice/cage) were weighed daily 3 hours prior to lights out. Immediately after weighing, on days 0-6 mice were injected subcutaneously with test compound. Mice were sacrificed on day 7 and kidneys submitted for histopathology. […] A positive control compound known to cause vacuole formation was scored as 3. The ABD polypeptide itself scored 0. Cmpd 15 scored 0.
# [5] = 25 and 250 nmol/kg IP twice each week for 28 days
molecule,measurement,setting,value
"CC[C@H](C)[C@H](NC(=O)[C@H](Cc1ccccc1)NC(=O)[C@H](CCC(=O)O)NC(=O)[C@H](CCCCN)NC(=O)[C@H](C)NC(=O)[C@H](C)NC(=O)[C@H](CCC(N)=O)NC(=O)CNC(=O)[C@H](CCC(=O)O)NC(=O)[C@H](CC(C)C)NC(=O)[C@H](Cc1ccc(O)cc1)NC(=O)[C@H](CO)NC(=O)[C@H](CO)NC(=O)[C@@H](NC(=O)[C@H](CC(=O)O)NC(=O)[C@H](CO)NC(=O)[C@@H](NC(=O)[C@H](Cc1ccccc1)NC(=O)[C@@H](NC(=O)CNC(=O)[C@H](CCC(=O)O)NC(=O)[C@H](C)NC(=O)[C@@H](N)Cc1c[nH]cn1)[C@@H](C)O)[C@@H](C)O)C(C)C)C(=O)N[C@@H](C)C(=O)N[C@@H](Cc1c[nH]c2ccccc12)C(=O)N[C@@H](CC(C)C)C(=O)N[C@H](C(=O)N[C@@H](CCCCN)C(=O)NCC(=O)N[C@@H](CCCNC(=N)N)C(N)=O)C(C)C [GLP-1(7-36) amide, reference compound]",Percent Stable,[1],16%
same,Percent Stable in Human Plasma,[2],41.7%
HGEGTFTSDLSKQLEEEAVRLFIEWLKQGGPSKEIISGGSLAEAKVLANRELDKYGVSDFYKRLINKAKTVEGVEALKLHILAALP [Cmpd 33],% Glucose Lowering Compared to Vehicle,NIH/Swiss female mice,−19%
HGEGTFTSDLSKQLEEEAVRLFIEWLKQGGPSKEIISTGGGGSASLAEAKVLANRELDKYGVSDFYKRLINKAKTVEGVEALKLHILAALP [Cmpd 15],% Glucose Lowering Compared to Vehicle,NIH/Swiss female mice,−21%
same,blood glucose lowering activity after oral dosing,"db/db mice; 240 nmol/kg peroral gavage, to 120 minutes, 2-hour fasted db/db mice",active when dosed orally
same,oral bioavailability,"db/db mice; peroral gavage, 1 mg/kg",orally bioavailable
same,Percent Stable in Human Plasma,[2],96.0%
same,apparent half-life,[3],54 h
same,effect on body weight,ob/ob mice,significant body weight loss
same,effects compared to maximally efficacious dose of exendin-4 (7.2 nmol/kg/d CSI),"diabetic ob/ob mice; 25 nmol/kg biw, comparable equimolar dose",exceeded the glycemic and body weight loss effects of the maximally efficacious dose of exendin-4
same,effects compared to maximally efficacious dose of exendin-4,diabetic ob/ob mice; 250 nmol/kg biw,significantly greater
same,HbA1c lowering (% change from baseline),diabetic ob/ob mice; [5],significant HbA1c lowering
same,body weight loss (% change from baseline),diabetic ob/ob mice; [5],significant body weight loss
same,HbA1c lowering and body weight loss compared to liraglutide,"diabetic ob/ob mice; equimolar dosing to liraglutide, data not shown",more effective than liraglutide
same,glucose lowering compared to liraglutide,"diabetic ob/ob mice; equimolar dosing, twice weekly (BIW), chronic exposure",superior to liraglutide
same,Severity score for cytoplasmic vacuolation of renal cortical tubular epithelial cells,[4],0
HGEGTFTSDLSKQLEEEAVRLFIEWLKQGGPSKEIISTGGGGSGGGSGGGSGGGSASLAEAKVLANRELDKYGVSDFYKRLINKAKTVEGVEALKLHILAALP [Cmpd 8],% Glucose Lowering Compared to Vehicle,NIH/Swiss female mice,−21%
HGEGTFTSDLSKQMEEEAVRLFIEWLKNGGSLAEAKVLANRELDKYGVSDFYKRLINKAKTVEGVEALKLHILAALP [Cmpd 32],glucose lowering activity when dosed 24 hours before the OGTT (in words),NIH/Swiss female mice; dosed IP at t=-1 day,no glucose lowering
HGEGTFTSDLSKQMEEEAVRLFIEWLKNTGGGGSASLAEAKVLANRELDKYGVSDFYKRLINKAKTVEGVEALKLHILAALP [Cmpd 10],% Glucose Lowering Compared to Vehicle,NIH/Swiss female mice,−22%
